Among the data in PubChem BioAssay AID449745 (Broad Institute, 2010) are AC50 values, retold here.

By AC50 is commonly meant the concentration giving half of the maximal activity seen.

SMILES strings stand for the structures. Inconclusive results are not listed. The source made the active and inactive calls. The rule behind the calls is not given here.

The experiment has as its target Zinc finger protein mex-5 (Caenorhabditis elegans) (UniProt Q9XUB2). Description: retest of MEX-5 TCR-2 binding inhibitors, confirmation, biochemical, C. elegans, fluorescence polarization, dose retest (AID 449745).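 Note: potency is for blocking Mex-5 binding to labeled TCR2 RNA like unlabeled competitor.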 Particulars: Mex-5 / TCR-2 RNA binding. Background: In fluorescence polarisation assays a small probe gives low polarisation when free and higher when bound to something large.

Chain of Zinc finger protein mex-5 (Caenorhabditis elegans) (Q9XUB2 whole entry, looked up): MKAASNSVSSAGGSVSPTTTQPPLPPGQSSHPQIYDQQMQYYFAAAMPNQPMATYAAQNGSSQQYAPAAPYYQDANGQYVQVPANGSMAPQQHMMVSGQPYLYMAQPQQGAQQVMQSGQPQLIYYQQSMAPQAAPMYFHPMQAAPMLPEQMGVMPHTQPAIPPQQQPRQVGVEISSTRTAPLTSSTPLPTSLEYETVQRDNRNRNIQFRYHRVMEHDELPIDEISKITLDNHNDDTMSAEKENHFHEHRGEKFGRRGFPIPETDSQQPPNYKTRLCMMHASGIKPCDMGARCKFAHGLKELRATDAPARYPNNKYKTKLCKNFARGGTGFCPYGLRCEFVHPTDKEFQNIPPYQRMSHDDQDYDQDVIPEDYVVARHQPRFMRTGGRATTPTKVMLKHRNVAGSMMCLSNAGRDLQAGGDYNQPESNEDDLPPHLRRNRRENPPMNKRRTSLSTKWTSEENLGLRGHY

On to `O=C(c1ccc(Cl)cc1)C1C2C(=O)N(c3ccccc3)C(=O)C2C2CCCN21` (stereo unspecified), for which the concentration at half-maximal activity (AC50) was 19.8 µM.

As for `CCN(CC)C(=O)Cn1c(=O)c2ccccc2n2c(=S)sc(-c3cccc(C)c3)c12`, the AC50 is 17.2 µM.

For `O=C1c2cccc3c(N4CCCCC4)ccc(c23)C(=O)N1c1ccccc1O`, the AC50 is 28.7 µM.

In the case of `Cc1cc(O)c(-c2cc(O)c(C)cc2O)cc1O`, the AC50 was 6.21 µM.

`CC1(C)CC2(CC(c3ccccc3F)c3ccc(O)c(O)c3O2)NC(=S)N1` (stereo unspecified): the AC50 was 0.638 µM.

In the case of `CCOC(=O)/C(C#N)=C/c1ccc(-c2ccsc2C(=O)OC)o1`, the AC50 was > 38 µM (inactive).

Regarding `Cc1cc(/C=C2\SC(=S)N(Cc3ccco3)C2=O)c(C)n1-c1ccccc1`, the AC50 is 16.6 µM.

Turning to `O=Cc1ccc2ccc3cccnc3c2n1`, the half-maximal activity concentration (AC50) was 30.2 µM.

For `CCOC(=O)c1cc(C#N)c(SCC(N)=O)[nH]c1=O`, the AC50 was > 38 µM (inactive).

`O=C1c2cccc3cccc(c23)C(=O)C1(O)O`: the AC50 is 15.6 µM.

`COCC(C)N1CCC(Oc2cccc(C(=O)NCCc3ccccc3)c2)CC1` (stereo unspecified): the AC50 was > 38 µM (inactive).

For `COc1ccc(N/C=C/C(=O)c2ccc3c(c2)OCO3)cc1OC`, the AC50 is > 38 µM (inactive).

With `CCOC(=O)/C=c1\s/c(=C\c2ccc3cc(OC)ccc3c2)c(=O)n1CC(=O)NCc1ccc2c(c1)OCO2`, the AC50 was > 38 µM (inactive).

As to `NS(=O)(=O)c1ccc(-c2ccc(C=C3C(=O)NC(=S)NC3=O)o2)cc1`, the AC50 is 8.11 µM.

In the case of `Cc1ccccc1C(=O)N=c1ccn(-c2nc3ccccc3nc2NS(=O)(=O)c2ccccc2)cc1`, the AC50 was > 38 µM (inactive).

Turning to `CC(C)(O)C(=O)NNC(=S)NCc1ccco1`, the AC50 is 4.16 µM.

For `O=c1[nH]c(=O)n(Cc2ccccc2)c(O)c1/C=C1\C=Nc2ccccc21`, the AC50 is 29.8 µM.

As for `CCOc1cc(Br)c(/C=C2/C(=O)N(C)C(=S)N2CC(=O)OC)cc1OC`, the AC50 is > 38 µM (inactive).

Consider `COc1ccc(OC)c(N2C(=O)NC(=O)/C(=C/c3ccc([N+](=O)[O-])s3)C2=O)c1`, for which the half-maximal activity concentration (AC50) is 22 µM.

Consider `COc1ccc(N2C(=O)NC(=O)/C(=C\c3ccc([N+](=O)[O-])s3)C2=O)cc1`, for which the concentration at half-maximal activity (AC50) was 18.7 µM.

With `CSc1nc(N)c(N=Nc2ccc([As](=O)(O)O)cc2)c(=O)[nH]1`, the AC50 was 17.7 µM.

`Cc1ccc([C@@H]2C3COCC=C3C(C#N)=C(N)C2(C#N)C#N)o1` (stereo partly specified): the AC50 is > 38 µM (inactive).

Turning to `CC(C)CN1CCN(Cc2cccc3ncccc23)CC1CCO` (stereo unspecified), the AC50 is > 38 µM (inactive).

As to `NC(=S)NNc1cccc2cccnc12`, the AC50 was 0.987 µM.

Take `CCOC(=O)C(C(=O)OCC)c1cc(Br)c2noc3c2c1C(=O)c1ccccc1-3`: the half-maximal activity concentration (AC50) was below 0.3 µM.

`CCC(C)[C@H](NC(=O)C1CC(=O)N(c2ccc3c(c2)OCO3)C1)C(=O)NC1CCCCC1` (stereo partly specified): the concentration at half-maximal activity (AC50) is 35.8 µM.

For `CCOc1ccc(/C=C/C(=O)c2c(O)c3ccccc3oc2=O)cc1`, the AC50 was > 38 µM (inactive).

Consider `Cc1nc2c3ccccc3nc(NNC(=O)CCC(=O)NC(C)C)n2n1`, for which the AC50 was below 0.3 µM.

Take `CCn1c(SCc2nc3sc(C(=O)O)c(C)c3c(=O)[nH]2)nc2ccccc21`: the concentration at half-maximal activity (AC50) is 13 µM.

`O=C(Nc1ccccc1F)C(=Cc1sc(N2CCOCC2)nc1-c1ccccc1)C(=O)Nc1ccccc1F`: the AC50 was 29.4 µM.

Take `CCOC(=O)C1=C(C)N=c2s/c(=C\c3cccn3C)c(=O)n2C1c1cccc(OC)c1OC` (stereo unspecified): the concentration at half-maximal activity (AC50) is 13.8 µM.

Take `Nc1nnc(CC(=O)N/N=C/c2cc([N+](=O)[O-])cc(Br)c2O)s1`: the half-maximal activity concentration (AC50) is 2.69 µM.

With `CC(C)(C)C1CC=C2C(C#N)=C(N)C(C#N)(C#N)C(c3cccs3)C2C1` (stereo unspecified), the AC50 is > 38 µM (inactive).

Regarding `O=C(O)C1Nc2c(Cl)cc(Cl)cc2C2C=CCC12` (stereo unspecified), the concentration at half-maximal activity (AC50) is 33.2 µM.

Consider `CC/C(=N/Nc1cccc(C)c1)c1cnnc(SC)n1`, for which the AC50 was > 38 µM (inactive).

For `Cc1nn(C)cc1C(=O)NNC(=S)Nc1ccccc1`, the AC50 is 19.5 µM.

In the case of `CCOC(=O)c1ccc(N=Nc2c(C)c(C#N)c(O)[nH]c2=O)cc1`, the concentration at half-maximal activity (AC50) is 13.3 µM.

Take `O=C(O)CCCC(=O)NNc1nc(-c2ccccc2)c2cc(Cl)ccc2n1`: the concentration at half-maximal activity (AC50) is 13.3 µM.

On to `COc1ccc2ccccc2c1CNCc1ccccn1`, for which the AC50 is > 38 µM (inactive).

In the case of `CCn1c(C)c(C(C)=O)c(N2CCN(c3ccccc3)CC2)nc1=S`, the AC50 was > 38 µM (inactive).

Take `CCCCCCc1cc2cc(C(=O)NC)c(=N)oc2cc1O`: the concentration at half-maximal activity (AC50) is 6.09 µM.

Consider `O=C(CCCN1C(=O)/C(=C/c2ccccc2Cl)SC1=S)NNC(=O)c1ccc(Cl)cc1`, for which the AC50 is > 38 µM (inactive).

With `N#CC1=C(N)N2C(=C(C#N)C1c1ccccc1)Sc1ccccc12` (stereo unspecified), the AC50 was 5.23 µM.

For `CC(=O)Nc1ccc(S(=O)(=O)NNC(=O)C(=O)NNc2ccccn2)cc1`, the AC50 is 0.621 µM.

For the molecule `CCc1nnc(NC(=O)CCN2C(=O)/C(=C/c3cc(OC)c(OC)c(OC)c3)SC2=S)s1`, the AC50 was > 38 µM (inactive).

Turning to `NC(=O)c1c(NC(=O)C2COc3ccccc3O2)sc2c1CCN(Cc1ccccc1)C2` (stereo unspecified), the AC50 is > 38 µM (inactive).

For the molecule `CN1CCN(c2nc(-c3ccccc3)nc(-c3ccccc3)c2C#N)CC1`, the AC50 is > 38 µM (inactive).

Regarding `COc1ccc(Cn2c3ccc(OC)cc3c3nc4ccccc4nc32)cc1`, the half-maximal activity concentration (AC50) is 22.9 µM.

In the case of `CCN1CCc2c(sc(N)c2C(N)=O)C1`, the half-maximal activity concentration (AC50) was 37.4 µM.

For the molecule `COc1ccccc1-n1c(C)nc2cc(C(=O)NCc3ccc4c(c3)OCO4)ccc21`, the AC50 was > 38 µM (inactive).

In the case of `O=C1CCNc2ccc(-c3ccccc3)cc21`, the half-maximal activity concentration (AC50) was 4.42 µM.

As for `OC(CNC1CCCC1)COc1ccccc1Br` (stereo unspecified), the AC50 is > 38 µM (inactive).

For `COc1cc2c(cc1N/C=C(\C#N)c1nc(-c3ccc(F)cc3)cs1)oc1ccccc12`, the AC50 was > 38 µM (inactive).

On to `CCOC(=O)c1c(NS(=O)(=O)c2ccccc2)n(CCCOC)c2nc3ccccc3nc12`, for which the AC50 is > 38 µM (inactive).

Turning to `O=C(N/N=C/c1c(O)n(Cc2ccccc2)c(=O)[nH]c1=O)c1ccccc1O`, the half-maximal activity concentration (AC50) is 10.5 µM.

On to `O=C1OC(/C(=C\Nc2cc(Cl)ccc2O)[N+](=O)[O-])c2ccccc21` (stereo unspecified), for which the AC50 was 12.4 µM.

Take `CCc1cccc2cc3c(N)c(C(=O)Nc4ccc(S(=O)(=O)N5CCCC5)cc4)sc3nc12`: the AC50 was 8.06 µM.

In the case of `O=C(O)c1ccccc1NS(=O)(=O)c1cccc(-n2sc3ccccc3c2=O)c1`, the half-maximal activity concentration (AC50) is 7.89 µM.

Take `Oc1ccc(N=Nc2nccs2)c(O)c1`: the AC50 is 38.3 µM.

For `CCOC(=O)c1c(-c2ccccc2)oc2ccc(OCC(=O)NNC(=O)CCC(=O)O)cc12`, the concentration at half-maximal activity (AC50) was 15.1 µM.

For the molecule `COc1cccc(CN2C(=O)c3cccc(N)c3C2=O)c1`, the AC50 was 32 µM.

Take `COc1ccc(/C=C/C(=O)c2c(O)n(CCC3=CCCCC3)c(=O)[nH]c2=O)cc1`: the AC50 was > 38 µM (inactive).

As for `O=C(O)c1cc(-c2ccco2)nc2cc3ccccc3cc12`, the AC50 is > 38 µM (inactive).

For the molecule `N=c1c(C(=O)NCC2CCCO2)cc2c(=O)n3ccccc3nc2n1Cc1ccc(Cl)cc1` (stereo unspecified), the AC50 was > 38 µM (inactive).

On to `COc1cc(C(=O)NC(=S)NNC(=O)c2cnccn2)cc(OC)c1OC`, for which the AC50 was below 0.3 µM.

On to `COCC1CCN(Cc2c(C(=O)N3CCc4ccccc4C3)nc3ccc(Cl)cn23)C1` (stereo unspecified), for which the AC50 was 21.5 µM.

Turning to `O=C(c1nc2ccc(Cl)cn2c1CN1CCCC1)N1CCc2ccccc2C1`, the half-maximal activity concentration (AC50) was 23.7 µM.

Turning to `CCCN1CCN(S(=O)(=O)c2cn(C)nc2C)CC1`, the concentration at half-maximal activity (AC50) is 39.9 µM.

As for `CC(C)C[C@H](NC(=O)C1CC(=O)N(c2ccc3c(c2)OCO3)C1)C(=O)NC1CCCC1` (stereo partly specified), the concentration at half-maximal activity (AC50) is 29.2 µM.

For the molecule `CCOC(=O)c1c(/N=C/C2C(=O)NC(=S)NC2=O)sc2c1CCC2`, the concentration at half-maximal activity (AC50) is 12.8 µM.

With `CCc1cc(-c2n[nH]c(CCC(=O)O)c2-c2nc3ccccc3n2C)c(O)cc1O`, the concentration at half-maximal activity (AC50) was 12.1 µM.

In the case of `O=C(O)COc1ccccc1C(Nc1cccnc1)c1cc(Cl)c2cccnc2c1O` (stereo unspecified), the AC50 is 10.5 µM.

For the molecule `CC1CN(c2nc3ccccc3nc2C(C#N)C(=O)NCc2ccc3c(c2)OCO3)CC(C)O1` (stereo unspecified), the concentration at half-maximal activity (AC50) is 23.8 µM.

For the molecule `O=C(/C=C/c1ccc(O)c(O)c1)OC1C(O)CC(OC(=O)/C=C/c2ccc(O)c(O)c2)(C(=O)O)CC1O` (stereo unspecified), the AC50 was 15.9 µM.

`CCOC(=O)C(=NC(C)C)NNc1cc(Cl)ccc1Cl`: the AC50 is > 38 µM (inactive).

Take `O=[N+]([O-])c1ccc(NCc2ccccc2)c2nonc12`: the AC50 was 0.744 µM.

With `COc1ccc(Cn2c(O)c(/C=N/NC(=O)c3ccccc3O)c(=O)[nH]c2=O)cc1`, the AC50 was 6.41 µM.

Consider `COc1ccc2c(c1)NP(=S)(Oc1ccccc1)N2` (stereo unspecified), for which the concentration at half-maximal activity (AC50) was 12.8 µM.

Turning to `CCCCCCNC(=O)C(C#N)c1nc2ccccc2nc1N1CCOCC1` (stereo unspecified), the half-maximal activity concentration (AC50) is 13.3 µM.

For the molecule `Cc1cccc(C2Nc3ccccc3C(=O)N2NC(=O)c2ccc([N+](=O)[O-])cc2)n1` (stereo unspecified), the AC50 was 8.47 µM.

As to `Nc1ccc2nc3c(=O)n(CCc4ccccc4)c(=O)[nH]c3nc2c1`, the AC50 was 3.43 µM.

In the case of `O=S(=O)(O)c1cccc2c(N=Nc3ccc(O)c4ncccc34)cccc12`, the AC50 was 3.04 µM.

Consider `O=C1/C(=C\c2ccc(Br)cc2)SC(=S)N1NS(=O)(=O)c1ccccc1`, for which the AC50 is 17.7 µM.

Turning to `Cc1cc(C)cc(N2C(=O)NC(=O)/C(=C/c3cccn3-c3ccc(Cl)cc3)C2=O)c1`, the AC50 is > 38 µM (inactive).

On to `O=C(O)c1cc(-c2ccc(/C=c3\sc4nc5ccc(Br)cc5n4c3=O)o2)ccc1Cl`, for which the half-maximal activity concentration (AC50) was 5.15 µM.

For the molecule `O=c1c2ccccc2nc(/C=C/c2ccc([N+](=O)[O-])o2)n1-c1ccc(O)cc1`, the AC50 is > 38 µM (inactive).

`O=C(Nc1ccc2nc(-c3ccco3)c(-c3ccco3)nc2c1)N1CCN(c2ccccn2)CC1`: the AC50 was > 38 µM (inactive).

As for `COc1ccc(CN2C(=O)NC(=O)/C(=C\c3ccco3)C2=O)cc1`, the concentration at half-maximal activity (AC50) was 38.7 µM.

In the case of `O=C(CCN1C(=O)/C(=C/c2ccco2)SC1=S)Nc1ccc(C(=O)O)c(O)c1`, the half-maximal activity concentration (AC50) was 30.6 µM.

For the molecule `Nc1c(C(=O)C2CC2)sc2nc(-c3cccs3)cc(C(F)(F)F)c12`, the AC50 was > 38 µM (inactive).

Consider `O=c1[nH]n2c(=O)c3c([nH]c2c1N=Nc1ccccc1)CCC3`, for which the AC50 is below 0.3 µM.
